# Assay results reported in US8541588B2, “Sulfonamide derivatives” (Pfizer Limited, priority 2009, dated 2013).
# Target: T1, Nav1.7 (or SCN9A) channel; HEK cells stably transfected with hSCN9A (Homo sapiens, UniProt Q15858)
# T1 construct: expressed in transfected cells
# Experiment: Nav1.7 block, PatchXpress 7000 automated whole-cell voltage clamp, estimated IC50 (EIC50)
# Format: cell-based
# Settings: PatchXpress platform; hSCN9A HEK cells held at V1/2 of inactivation; estimated IC50
# T1 sequence (Q15858 whole entry): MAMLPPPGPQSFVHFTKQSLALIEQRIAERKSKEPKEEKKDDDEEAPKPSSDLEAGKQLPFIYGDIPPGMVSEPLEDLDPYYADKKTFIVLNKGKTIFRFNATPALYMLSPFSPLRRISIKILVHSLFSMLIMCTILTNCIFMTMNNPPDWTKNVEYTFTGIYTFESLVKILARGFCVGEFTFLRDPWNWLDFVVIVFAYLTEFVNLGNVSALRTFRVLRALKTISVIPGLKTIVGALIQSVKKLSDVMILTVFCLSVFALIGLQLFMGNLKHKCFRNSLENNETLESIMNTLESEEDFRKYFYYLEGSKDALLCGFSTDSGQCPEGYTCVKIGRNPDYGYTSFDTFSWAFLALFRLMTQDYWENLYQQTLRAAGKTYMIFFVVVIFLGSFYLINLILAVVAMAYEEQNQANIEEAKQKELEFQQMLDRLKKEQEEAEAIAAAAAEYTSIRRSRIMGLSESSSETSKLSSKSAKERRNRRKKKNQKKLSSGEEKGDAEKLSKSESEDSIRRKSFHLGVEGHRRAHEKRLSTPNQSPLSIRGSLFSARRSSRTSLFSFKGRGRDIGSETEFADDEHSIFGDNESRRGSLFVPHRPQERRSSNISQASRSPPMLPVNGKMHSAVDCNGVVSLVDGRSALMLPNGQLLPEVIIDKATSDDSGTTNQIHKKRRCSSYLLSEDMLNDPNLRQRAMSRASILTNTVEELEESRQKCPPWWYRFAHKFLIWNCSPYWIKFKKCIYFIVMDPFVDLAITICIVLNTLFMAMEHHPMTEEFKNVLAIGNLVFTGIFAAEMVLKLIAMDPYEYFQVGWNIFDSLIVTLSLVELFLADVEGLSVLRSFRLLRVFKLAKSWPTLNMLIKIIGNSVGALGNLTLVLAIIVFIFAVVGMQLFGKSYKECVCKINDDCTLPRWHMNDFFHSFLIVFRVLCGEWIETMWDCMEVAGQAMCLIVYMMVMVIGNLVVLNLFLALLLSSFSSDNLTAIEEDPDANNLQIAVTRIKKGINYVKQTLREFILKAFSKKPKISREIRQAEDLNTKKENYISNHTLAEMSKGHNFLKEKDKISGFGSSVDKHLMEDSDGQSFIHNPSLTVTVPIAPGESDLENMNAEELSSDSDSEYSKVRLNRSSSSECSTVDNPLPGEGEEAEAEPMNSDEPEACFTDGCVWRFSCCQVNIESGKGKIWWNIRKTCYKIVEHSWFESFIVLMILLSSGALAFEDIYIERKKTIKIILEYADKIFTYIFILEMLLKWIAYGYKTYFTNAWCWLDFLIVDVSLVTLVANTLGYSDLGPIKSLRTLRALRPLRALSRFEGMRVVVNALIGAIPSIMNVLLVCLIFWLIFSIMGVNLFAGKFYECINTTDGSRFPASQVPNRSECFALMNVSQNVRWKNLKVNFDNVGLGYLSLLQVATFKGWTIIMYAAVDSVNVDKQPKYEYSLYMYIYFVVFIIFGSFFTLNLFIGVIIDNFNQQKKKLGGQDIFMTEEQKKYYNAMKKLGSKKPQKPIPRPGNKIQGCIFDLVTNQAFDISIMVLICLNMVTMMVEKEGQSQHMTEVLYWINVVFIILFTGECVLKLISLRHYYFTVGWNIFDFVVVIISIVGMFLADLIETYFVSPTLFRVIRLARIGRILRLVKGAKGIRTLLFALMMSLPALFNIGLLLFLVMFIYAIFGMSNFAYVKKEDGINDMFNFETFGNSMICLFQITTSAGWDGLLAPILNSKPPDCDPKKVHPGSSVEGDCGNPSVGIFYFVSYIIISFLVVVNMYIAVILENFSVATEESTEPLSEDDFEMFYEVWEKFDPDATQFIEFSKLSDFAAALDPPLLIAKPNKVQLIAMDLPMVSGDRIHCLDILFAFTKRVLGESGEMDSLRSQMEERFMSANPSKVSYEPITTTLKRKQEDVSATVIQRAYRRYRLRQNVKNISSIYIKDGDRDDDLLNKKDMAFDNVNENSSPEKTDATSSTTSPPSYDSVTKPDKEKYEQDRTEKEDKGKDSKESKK
row,IC50 [nM],SMILES
1,420,"N#Cc1cc(S(=O)(=O)Nc2nccs2)ccc1Oc1ccc(F)cc1-c1ccc(CCO)cc1 [Example 201, 3-cyano-4-{[5-fluoro-4′-(2-hydroxyethyl)biphenyl-2-yl]oxy}-N-1,3-thiazol-2-ylbenzenesulfonamide]"
2,420,"N#Cc1cc(S(=O)(=O)Nc2nccs2)ccc1Oc1ccc(F)cc1-c1ccc(CO)cc1 [Example 162, 3-cyano-4-{[5-fluoro-4′-(hydroxymethyl)biphenyl-2-yl]oxy}-N-1,3-thiazol-2-ylbenzenesulfonamide]"
3,1600,"N#Cc1cc(S(=O)(=O)Nc2ncns2)ccc1Oc1cc(C2CC2)nn1-c1cc(F)ccc1F [Example 87, 3-cyano-4-{[3-cyclopropyl-1-(2,5-difluorophenyl)-1H-pyrazol-5-yl]oxy}-N-1,2,4-thiadiazol-5-ylbenzenesulfonamide]"
4,2780,"Cc1cc(C)n(-c2ccc(Oc3ccc(S(=O)(=O)Nc4nccs4)cc3F)cc2)n1 [Example 248, 4-[4-(3,5-dimethyl-pyrazol-1-yl)-phenoxy]-3-fluoro-N-thiazol-2-yl-benzenesulfonamide]"
5,1110,"Cc1cc(Oc2ccc(S(=O)(=O)Nc3nccs3)cc2)n(-c2ccccc2)n1 [Example 277, 4-(5-methyl-2-phenyl-2H-pyrazol-3-yloxy)-N-thiazol-2-yl-benzenesulfonamide]"
6,12200,"COc1ccc(-n2cc(Oc3ccc(S(=O)(=O)Nc4ncns4)cc3C#N)c(C(C)C)n2)cc1 [Example 65, 3-cyano-4-{[3-isopropyl-1-(4-methoxyphenyl)-1H-pyrazol-4-yl]oxy}-N-1,2,4-thiadiazol-5-ylbenzenesulfonamide]"
7,>10000,"N#Cc1cc(S(=O)(=O)Nc2nccs2)ccc1Oc1cc(C2CC2)nn1-c1ccccn1 [Example 191, 3-cyano-4-(5-cyclopropyl-2-pyridin-2-yl-2H-pyrazol-3-yloxy)-N-thiazol-2-yl-benzenesulfonamide]"
8,100,"N#Cc1cc(S(=O)(=O)Nc2nccs2)ccc1Oc1ccc(Cl)cc1-c1ccnn1CC(F)(F)F [Example 177, 4-(4-chloro-2-(1-(2,2,2-trifluoroethyl)-1H-pyrazol-5-yl)phenoxy)-3-cyano-N-(thiazol-2-yl)benzenesulfonamide]"

# Same assay, conditions: estimated IC50; hSCN9A HEK cells, PatchXpress platform; Examples 283-814
row,IC50 [nM],SMILES
1,250,"Cn1nccc1-c1cc(Cl)ccc1Oc1ncc(S(=O)(=O)Nc2nccs2)cc1Cl [Example 759, 5-chloro-6-[4-chloro-2-(1-methyl-1H-pyrazol-5-yl)phenoxy]-N-1,3-thiazol-2-ylpyridine-3-sulfonamide]"
2,51000,"Cn1nccc1-c1cc(Cl)ccc1Oc1ccc(S(=O)(=O)Nc2ncc(C(F)(F)F)cn2)cc1C#N [Example 462, 4-[4-chloro-2-(1-methyl-1H-pyrazol-5-yl)phenoxy]-3-cyano-N-[5-(trifluoromethyl)pyrimidin-2-yl]benzenesulfonamide]"
3,140,"O=S(=O)(Nc1nccs1)c1ccc(Oc2cc(Cl)ccc2-c2ccn[nH]2)c(F)c1 [Example 722, 4-[5-Chloro-2-(1H-pyrazol-5-yl)phenoxy]-3-fluoro-N-1,3-thiazol-2-ylbenzenesulfonamide]"
4,15,"Cn1nccc1-c1cc(Br)ccc1Oc1ccc(S(=O)(=O)Nc2nccs2)cc1C#N [Example 705, 4-[4-bromo-2-(1-methyl-1H-pyrazol-5-yl)phenoxy]-3-cyano-N-1,3-thiazol-2-ylbenzenesulfonamide]"
5,390,"N#Cc1cc(S(=O)(=O)Nc2ncns2)ccc1Oc1ccc(I)cc1-c1cn[nH]c1 [Example 289, 3-cyano-4-[4-iodo-2-(1H-pyrazol-4-yl)phenoxy]-N-1,2,4-thiadiazol-5-ylbenzenesulfonamide]"
6,77,"N#Cc1cc(S(=O)(=O)Nc2ncns2)ccc1Oc1ccc(Cl)cc1-c1ccnn1C(F)F [Example 510, 4-{4-chloro-2-[1-(difluoromethyl)-1H-pyrazol-5-yl]phenoxy}-3-cyano-N-1,2,4-thiadiazol-5-ylbenzenesulfonamide]"
7,38,"N#Cc1cc(S(=O)(=O)Nc2cscn2)ccc1Oc1ccc(Cl)cc1-c1ccnn1C1CNC1 [Example 809, 4-[2-(1-azetidin-3-yl-1H-pyrazol-5-yl)-4-chlorophenoxy]-3-cyano-N-1,3-thiazol-4-ylbenzenesulfonamide]"
8,88,"N#Cc1cc(S(=O)(=O)Nc2cscn2)ccc1Oc1ccc(Cl)cc1-c1ccnn1C1CCNCC1 [Example 760, 4-[4-chloro-2-(1-piperidin-4-yl-1H-pyrazol-5-yl)phenoxy]-3-cyano-N-1,3-thiazol-4-ylbenzenesulfonamide]"
9,50,"N#Cc1cc(S(=O)(=O)Nc2ncns2)ccc1Oc1ccc(Cl)cc1C1CCNCC1 [Example 505, 4-(4-chloro-2-piperidin-4-ylphenoxy)-3-cyano-N-1,2,4-thiadiazol-5-ylbenzenesulfonamide]"
10,7.8,"Cn1nccc1-c1cc(OC(F)(F)F)ccc1Oc1ccc(S(=O)(=O)Nc2nccs2)cc1C#N [Example 783, 3-cyano-4-[2-(1-methyl-1H-pyrazol-5-yl)-4-(trifluoromethoxy)phenoxy]-N-1,3-thiazol-2-ylbenzenesulfonamide]"
11,56,"Cn1nccc1-c1cc(C(F)(F)F)ccc1Oc1ccc(S(=O)(=O)Nc2ncns2)cc1C#N [Example 437, 3-cyano-4-[2-(1-methyl-1H-pyrazol-5-yl)-4-(trifluoromethyl)phenoxy]-N-1,2,4-thiadiazol-5-ylbenzenesulfonamide]"
12,580,"N#Cc1cc(S(=O)(=O)Nc2nccs2)ccc1Oc1ccc(Cl)cc1CN1CCOCC1 [Example 493, 4-[4-chloro-2-(morpholin-4-ylmethyl)phenoxy]-3-cyano-N-1,3-thiazol-2-ylbenzenesulfonamide]"

# Same assay, conditions: estimated IC50; hSCN9A HEK cells, PatchXpress platform; Examples 815-1040
row,IC50 [nM],SMILES
1,48,"O=S(=O)(Nc1nncs1)c1cc(Cl)c(Oc2cc(C(F)(F)F)ccc2-c2ccnnc2)cc1F [Example 939, 5-chloro-2-fluoro-4-[2-pyridazin-4-yl-5-(trifluoromethyl)phenoxy]-N-1,3,4-thiadiazol-2-ylbenzenesulfonamide]"
2,40,"N#Cc1ccc(-c2ccnnc2)c(Oc2cc(F)c(S(=O)(=O)Nc3ncns3)cc2Cl)c1 [Example 951, 5-chloro-4-(5-cyano-2-pyridazin-4-ylphenoxy)-2-fluoro-N-1,2,4-thiadiazol-5-ylbenzenesulfonamide]"
3,3800,"CSc1nc(NS(=O)(=O)c2ccc(Oc3ccc(Cl)cc3-c3ccnn3C)c(C#N)c2)ns1 [Example 893, 4-[4-chloro-2-(1-methyl-1H-pyrazol-5-yl)phenoxy]-3-cyano-N-[5-(methylthio)-1,2,4-thiadiazol-3-yl]benzenesulfonamide]"
4,2000,"CN1CC(n2nccc2-c2cc(Cl)ccc2Oc2ncc(S(=O)(=O)Nc3ncns3)cc2Cl)C1 [Example 968, 5-chloro-6-{4-chloro-2-[1-(1-methylazetidin-3-yl)-1H-pyrazol-5-yl]phenoxy}-N-1,2,4-thiadiazol-5-ylpyridine-3-sulfonamide]"
5,740,"CN(C)C(=O)c1cccc(-c2ccccc2)c1Oc1ccc(S(=O)(=O)Nc2ncns2)cc1C#N [Example 1008, 2-{2-cyano-4-[(1,2,4-thiadiazol-5-ylamino)sulfonyl]phenoxy}-N,N-dimethylbiphenyl-3-carboxamide]"
6,3.8,"N#Cc1cc(S(=O)(=O)Nc2ncns2)ccc1Oc1ccc(C(F)(F)F)cc1-c1ccnn1C1CNC1 [Example 935, 4-[2-(1-azetidin-3-yl-1H-pyrazol-5-yl)-4-(trifluoromethyl)phenoxy]-3-cyano-N-1,2,4-thiadiazol-5-ylbenzenesulfonamide]"
